Assay [1] deals with Staphylococcus aureus. Description: Antibacterial activity against Staphylococcus aureus assessed as zone of inhibition at 100 ug/ml. The assay is classed as functional. The following applies: read-out: IZ.
A further assay relates to Bacillus subtilis. Description: Antibacterial activity against Bacillus subtilis assessed as zone of inhibition at 100 ug/ml. Format: functional. The following applies: read-out: IZ.
Assay [2] relates to Escherichia coli. Description: Antibacterial activity against Escherichia coli assessed as zone of inhibition at 100 ug/ml. Format: functional. Particulars: read-out: IZ.
A further assay relates to Salmonella typhimurium. Description: Antibacterial activity against Salmonella typhimurium DT104 assessed as zone of inhibition at 100 ug/ml. Format: functional, Salmonella enterica subsp. enterica serovar Typhimurium. The following applies: Salmonella enterica, read-out: IZ.
Another assay concerns MCF7. Kind of assay: Cytotoxicity against human MCF7 cells […] by MTT reduction assay. The assay is classed as functional, cell-based. A general note: Tetrazolium dyes change colour on reduction, which living cells bring about.
Another assay has as its system HeLa. Description: cells. Particulars: Homo sapiens.
The next assay deals with K562. Kind of assay: cells. The following applies: Homo sapiens.
The subject of another assay is LS180. Description: cells. The following applies: Homo sapiens.
Assay [3] concerns Staphylococcus aureus. Kind of assay: Antibacterial activity against Staphylococcus aureus assessed as zone of inhibition at 20 mg/ml. The assay is classed as functional. The following applies: read-out: IZ.
The test system of assay [4] is Escherichia coli. Kind of assay: Antibacterial activity against Escherichia coli assessed as zone of inhibition at 20 mg/ml. Format: functional. The following applies: read-out: IZ.
For the next assay, the system named is Bacillus cereus. Kind of assay: Antibacterial activity against Bacillus cereus assessed as zone of inhibition at 20 mg/ml. Format: functional. Particulars: read-out: IZ.
A further assay has as its system Pseudomonas aeruginosa. Description: Antibacterial activity against Pseudomonas aeruginosa assessed as zone of inhibition at 20 mg/ml. The assay is classed as functional. Particulars: read-out: IZ.
Another assay relates to Serratia marcescens. Kind of assay: Antibacterial activity against Serratia marcescens assessed as zone of inhibition at 20 mg/ml. The assay is classed as functional. The following applies: read-out: IZ.
The subject of the next assay is Micrococcus luteus. Kind of assay: Antibacterial activity against Micrococcus luteus assessed as zone of inhibition at 20 mg/ml. The assay is classed as functional. The following applies: read-out: IZ.
In a further assay the test system is Candida albicans. Description: Antifungal activity against Candida albicans assessed as zone of inhibition at 20 mg/ml. The assay is classed as functional. Particulars: read-out: IZ.
The subject of the next assay is Trichophyton rubrum. Kind of assay: Antifungal activity against Trichophyton rubrum assessed as zone of inhibition at 20 mg/ml. The assay is classed as functional. Particulars: read-out: IZ.
Another assay concerns Aspergillus flavus. Kind of assay: Antifungal activity against Aspergillus flavus assessed as zone of inhibition at 20 mg/ml. The assay is classed as functional. The following applies: read-out: IZ.
The subject of a further assay is Fusarium oxysporum. Kind of assay: Antifungal activity against Fusarium oxysporum assessed as zone of inhibition at 20 mg/ml. Format: functional. Particulars: read-out: IZ.
The test system of another assay is Scopulariopsis. Kind of assay: Antifungal activity against Scopulariopsis assessed as zone of inhibition at 20 mg/ml. The following applies: read-out: IZ. Format: functional.
The next assay concerns Geotrichum candidum. Kind of assay: Antifungal activity against Geotrichum candidum assessed as zone of inhibition at 20 mg/ml. The assay is classed as functional. Particulars: read-out: IZ.

A word on the IC50: it is the midpoint of a concentration-inhibition curve. Low values mean greater potency in that assay, high ones weaker potency in that assay.

Description for HeLa: Cytotoxicity against human HeLa cells at 50 uM by MTT reduction assay
Description for K562: Cytotoxicity against human K562 cells at 50 uM by MTT reduction assay
Description for LS180: Cytotoxicity against human LS180 cells at 50 uM by MTT reduction assay

Regarding `Cc1ccc2c(c1)oc(=O)c1c(-c3cn(-c4ccccc4)nc3-c3ccccc3)cc(-c3c(O)c(Br)cc(Cl)c3Cl)nc12`, the zone of inhibition at 100 µg/mL amounted to 21 mm with Staphylococcus aureus [1], 20 mm in the assay on Bacillus subtilis, 19 mm in the assay with Escherichia coli [2] and 22 mm in the assay on Salmonella typhimurium.

As for `Cc1ccc2c(c1)oc(=O)c1c(-c3cn(-c4ccccc4)nc3-c3ccccc3)cc(-c3ccc(Cl)cc3Cl)nc12`, the zone of inhibition at 100 µg/mL with Staphylococcus aureus [1] came to 16 mm; with Bacillus subtilis, 19 mm; in the assay with Escherichia coli [2], 21 mm; in the assay on Salmonella typhimurium, 19 mm.

On to `COc1cccc(-c2c3c(nc4c2c(=O)oc2ccccc24)CCCC3=O)c1`, for which the IC50 in the assay with MCF7, with HeLa, in the assay on K562 and with LS180 was above 100 µM in each case.

`Cc1ccc2c(c1)oc(=O)c1c(-c3cn(-c4ccccc4)nc3-c3ccccc3)cc(-c3c(O)c(Cl)c(O)c(Cl)c3Cl)nc12`: the zone of inhibition at 20000 µg/mL in the assay with Staphylococcus aureus [3] and in the assay with Escherichia coli [4] was 22 mm each time. Also, the zone of inhibition at 100 µg/mL is 18 mm in the assay on Staphylococcus aureus [1], 22 mm in the assay with Bacillus subtilis, 22 mm with Escherichia coli [2] and 20 mm in the assay with Salmonella typhimurium.

Take `CCOC(=O)c1sc2c(c1NC(=O)CNc1ccccc1)c(=O)oc1ccccc12`: the zone of inhibition at 20000 µg/mL with Staphylococcus aureus [3], in the assay with Bacillus cereus, in the assay on Escherichia coli [4], with Pseudomonas aeruginosa, in the assay on Serratia marcescens and with Micrococcus luteus was 0 mm throughout. The zone of inhibition at 20000 µg/mL in the assay on Candida albicans stood at 13 mm; in the assay with Trichophyton rubrum, 10 mm; with Aspergillus flavus, 12 mm; with Fusarium oxysporum it was 0 mm; with Scopulariopsis, 10 mm; in the assay on Geotrichum candidum it was 11 mm.

Take `Cc1ccc2c(c1)oc(=O)c1c(-c3cn(-c4ccccc4)nc3-c3ccccc3)cc(-c3c(O)c(C)cc(I)c3O)nc12`: the zone of inhibition at 100 µg/mL is 15 mm in the assay on Staphylococcus aureus [1], 18 mm in the assay with Bacillus subtilis, 18 mm in the assay on Escherichia coli [2] and 12 mm in the assay on Salmonella typhimurium.

`Cc1ccc2c(c1)oc(=O)c1c(-c3cn(-c4ccccc4)nc3-c3ccccc3)cc(-c3c(O)cc(O)cc3Cl)nc12`: the zone of inhibition at 100 µg/mL was 10 mm in the assay with Staphylococcus aureus [1], 14 mm in the assay with Bacillus subtilis, 19 mm in the assay with Escherichia coli [2] and 12 mm with Salmonella typhimurium.

In the case of `O=C1CCCc2nc3c(c(-c4ccc(Cl)cc4)c21)c(=O)oc1ccccc13`, the IC50 is 41.8 µM in the assay with MCF7, 37.7 µM in the assay on HeLa, 37.5 µM with K562 and above 100 µM in the assay on LS180.

Turning to `Cc1ccc2c(c1)oc(=O)c1c(-c3cn(-c4ccccc4)nc3-c3ccccc3)cc(-c3c(O)c(I)c(C)c(Cl)c3Cl)nc12`, the zone of inhibition at 100 µg/mL in the assay on Staphylococcus aureus [1] is 15 mm; with Bacillus subtilis it was 12 mm; with Escherichia coli [2] it was 9 mm; in the assay with Salmonella typhimurium it was 12 mm.

With `O=C(N[C@H](CO)[C@H](O)c1ccc([N+](=O)[O-])cc1)C(Cl)Cl` [CHLORAMPHENICOL], the zone of inhibition at 20000 µg/mL was 18 mm in the assay on Staphylococcus aureus [3]; 22 mm in the assay on Bacillus cereus; 18 mm with Escherichia coli [4]; 18 mm in the assay on Pseudomonas aeruginosa; 20 mm with Serratia marcescens; 20 mm with Micrococcus luteus. Besides, the zone of inhibition at 20000 µg/mL in the assay with Candida albicans amounted to 20 mm; in the assay with Trichophyton rubrum, 36 mm; in the assay with Aspergillus flavus, 44 mm; in the assay with Fusarium oxysporum it was 28 mm; with Scopulariopsis, 20 mm; in the assay with Geotrichum candidum it was 24 mm.

Take `CCOC(=O)c1sc2c(c1NC(=O)CCl)c(=O)oc1ccccc12`: the zone of inhibition at 20000 µg/mL is 8 mm with Staphylococcus aureus [3]; 0 mm in the assay on Bacillus cereus; 0 mm in the assay with Escherichia coli [4]; 0 mm in the assay on Pseudomonas aeruginosa; 0 mm in the assay on Serratia marcescens; 0 mm in the assay with Micrococcus luteus. Further, the zone of inhibition at 20000 µg/mL is 10 mm in the assay with Candida albicans; 0 mm in the assay with Trichophyton rubrum; 0 mm in the assay on Aspergillus flavus; 0 mm in the assay with Fusarium oxysporum; 0 mm in the assay with Scopulariopsis; 0 mm in the assay with Geotrichum candidum.

For `O=C1CCCc2nc3c(c(-c4cccc(Br)c4)c21)c(=O)oc1ccccc13`, the IC50 with MCF7 is 31.4 µM; with HeLa, 83.6 µM; in the assay with K562, 38.8 µM; in the assay on LS180, above 100 µM.

As to `Cc1ccc2c(c1)oc(=O)c1c(-c3cn(-c4ccccc4)nc3-c3ccccc3)cc(-c3c(O)c(I)cc(Cl)c3Cl)nc12`, the zone of inhibition at 100 µg/mL with Staphylococcus aureus [1] is 16 mm; in the assay on Bacillus subtilis it was 8 mm; in the assay with Escherichia coli [2], 18 mm; in the assay with Salmonella typhimurium, 14 mm.

For the compound `O=C1CCCc2nc3c(c(-c4ccccc4Cl)c21)c(=O)oc1ccccc13`, the IC50 with MCF7, in the assay on HeLa, in the assay on K562 and with LS180 was above 100 µM each time.

For the compound `O=C1CCCc2nc3c(c(-c4ccc([N+](=O)[O-])cc4)c21)c(=O)oc1ccccc13`, the IC50 in the assay on MCF7 is above 100 µM; in the assay with HeLa, 88.2 µM; in the assay with K562, 43.8 µM; with LS180, above 100 µM.

As for `CC1(C)S[C@@H]2[C@H](NC(=O)Cc3ccccc3)C(=O)N2[C@H]1C(=O)O` [PENICILLIN G], the zone of inhibition at 100 µg/mL was 24 mm in the assay with Staphylococcus aureus [1], 24 mm in the assay on Bacillus subtilis, 22 mm with Escherichia coli [2] and 22 mm in the assay with Salmonella typhimurium.

Turning to `Cc1ccc(-c2c3c(nc4c2c(=O)oc2ccccc24)CCCC3=O)cc1`, the IC50 with MCF7 was 66.7 µM; in the assay with HeLa, 43.6 µM; in the assay on K562, 56.2 µM; in the assay with LS180, above 100 µM.

Take `Cc1ccc2c(c1)oc(=O)c1c(-c3cn(-c4ccccc4)nc3-c3ccccc3)cc(-c3c(O)c(Cl)cc(I)c3O)nc12`: the zone of inhibition at 100 µg/mL with Staphylococcus aureus [1] turned out to be 19 mm; with Bacillus subtilis, 22 mm; with Escherichia coli [2], 20 mm; in the assay on Salmonella typhimurium, 16 mm.

On to `Cc1ccc2c(c1)oc(=O)c1c(-c3cn(-c4ccccc4)nc3-c3ccccc3)cc(-c3c(O)c(Cl)cc(Br)c3O)nc12`, for which the zone of inhibition at 100 µg/mL in the assay on Staphylococcus aureus [1] stood at 18 mm; with Bacillus subtilis it was 16 mm; with Escherichia coli [2] it was 19 mm; with Salmonella typhimurium it was 12 mm.

Take `O=C1CCCc2nc3c(c(-c4ccc(Br)cc4)c21)c(=O)oc1ccccc13`: the IC50 with MCF7 is 46.2 µM; with HeLa, 47.3 µM; with K562, 47.5 µM; with LS180, above 100 µM.

For `COc1ccc(-c2c3c(nc4c2c(=O)oc2ccccc24)CCCC3=O)cc1`, the IC50 in the assay on MCF7 was 62 µM; in the assay with HeLa it was 98.5 µM; in the assay with K562 it was above 100 µM; in the assay on LS180, above 100 µM.

Regarding `Cc1ccccc1-c1c2c(nc3c1c(=O)oc1ccccc13)CCCC2=O`, the IC50 in the assay on MCF7, with HeLa, in the assay with K562 and in the assay on LS180 was above 100 µM each time.

In the case of `Cc1ccc2c(c1)oc(=O)c1c(-c3cn(-c4ccccc4)nc3-c3ccccc3)cc(-c3c(O)ccc(Cl)c3O)nc12`, the zone of inhibition at 100 µg/mL is 19 mm in the assay with Staphylococcus aureus [1], 18 mm with Bacillus subtilis, 21 mm in the assay with Escherichia coli [2] and 20 mm with Salmonella typhimurium.

`COc1ccccc1-c1c2c(nc3c1c(=O)oc1ccccc13)CCCC2=O`: the IC50 with MCF7, in the assay with HeLa, in the assay on K562 and in the assay on LS180 was above 100 µM each time.

For `Cc1ccc2c(c1)oc(=O)c1c(-c3cn(-c4ccccc4)nc3-c3ccccc3)cc(-c3c(O)ccc(Cl)c3Cl)nc12`, the zone of inhibition at 100 µg/mL is 8 mm in the assay on Staphylococcus aureus [1], 10 mm with Bacillus subtilis, 12 mm in the assay with Escherichia coli [2] and 10 mm in the assay on Salmonella typhimurium.

As for `Cc1ccc2c(c1)oc(=O)c1c(-c3cn(-c4ccccc4)nc3-c3ccccc3)cc(-c3c(O)cc(C)c(Cl)c3Cl)nc12`, the zone of inhibition at 100 µg/mL in the assay with Staphylococcus aureus [1] worked out at 7 mm; with Bacillus subtilis it was 14 mm; in the assay on Escherichia coli [2], 8 mm; in the assay with Salmonella typhimurium, 10 mm.

Turning to `O=C1CCCc2nc3c(c(-c4cccc(Cl)c4)c21)c(=O)oc1ccccc13`, the IC50 in the assay on MCF7 is 71.7 µM; in the assay on HeLa, above 100 µM; with K562 it was 50.7 µM; with LS180 it was above 100 µM.

As to `Cc1cccc(-c2c3c(nc4c2c(=O)oc2ccccc24)CCCC3=O)c1`, the IC50 with HeLa was above 100 µM; in the assay on K562 it was 57.4 µM; in the assay on LS180, above 100 µM.

The values above are taken from ChEMBL document CHEMBL5230136, “A review: Biologically active 3,4-heterocycle-fused coumarins” (Eur J Med Chem, 2021).
